# Laboratory results from paper PMC9252588 (Drug Design, Development and Therapy, 2022).
# What was measured:
# [1] = test system: rat liver microsomes (RLMs); assay: Enzymatic kinetics of axitinib inhibition of buspirone metabolism in RLMs; type: in vitro ADME
# [2] = in vivo; cited from earlier work
# [3] = test system: buspirone N-dealkylation (formation of 1-PP); assay: in vitro; details: rat, rat liver microsomes
# [4] = test system: buspirone 6′-hydroxylation (formation of 6′-OH buspirone); assay: in vitro; details: rat, rat liver microsomes
# [5] = Pharmacokinetics of buspirone and metabolites with or without axitinib in rats; type: in vivo, Sprague–Dawley rats; details: increased to % of group A
# [6] = Pharmacokinetic pre-experiment: ritonavir before buspirone in rats; type: in vivo; details: ritonavir (positive inhibitor) administered before buspirone
smiles,measurement,setting,value
CNC(=O)c1ccccc1Sc1ccc2c(/C=C/c3ccccn3)n[nH]c2c1 [axitinib],α value,[1]; buspirone 6′-hydroxylation,2.139
same,α value,[1]; buspirone N-dealkylation,5.434
"O=C1CC2(CCCC2)CC(=O)N1CCCCN1CCN(c2ncccn2)CC1 [buspirone, 8-(4-(4-(2-pyrimidinyl)-1-piperizinyl)butyl)-8-azaspiro(4,5)decane-7,9-dione]",absorbed in the alimentary canal,[2],~100%
same,Km at 40 min,[3],26.3 µM
same,Km at 40 min,[4],23 µM
same,"AUC(0-t), group B compared with group A",[5],530%
same,"Cmax, group B compared with group A",[5],420%
same,"Tmax, group B compared with group A",[5],150%
CC(C)c1nc(CN(C)C(=O)N[C@H](C(=O)N[C@@H](Cc2ccccc2)C[C@H](O)[C@H](Cc2ccccc2)NC(=O)OCc2cncs2)C(C)C)cs1 [ritonavir],blood concentrations of buspirone,[6],extremely high blood concentrations of buspirone
same,symptoms compared with the control,[6],symptoms of inhibition of respiration and near-death
